What all share (format): cell-based
The test system of one test is A549. The test can be described thus: MTT cell viability assay, A549. The note with it: Homo sapiens, A549, 48 h, read-out: IC50(μM) A549.
A further test has as its system Hela. The test can be described thus: MTT cell viability assay, Hela. The note with it: Homo sapiens, HeLa, 48 h, read-out: IC50(μM) Hela, MTT, 48 h, Hela. Background: Tetrazolium dyes change colour on reduction, which living cells bring about.
The subject of a further test is HepG2. Kind of test: MTT cell viability assay, HepG2. The conditions noted are these: Homo sapiens, HepG2, 48 h, read-out: IC50(μM) HepG2.
The next test relates to MCF-7. Kind of test: MTT cell viability assay, MCF-7. The conditions noted are these: Homo sapiens, MCF7, 48 h, read-out: IC50(μM) MCF-7, MTT, 48 h, MCF-7.

Each structure is given as a SMILES string.

What is called IC50 is the point on the concentration scale where inhibition reaches its midpoint. With `O=c1[nH]cc(F)c(=O)[nH]1` [5-Fu, 5-fluorouracil, reference compound], the IC50 turned out to be 43.5 ± 1.22 µM in the test with A549, 43.8 ± 1.53 µM with Hela, 45.4 ± 1.35 µM in the test on HepG2 and 55.2 ± 1.92 µM in the test with MCF-7.

For `COc1cc(OC)c(C(=O)/C=C/c2c(OC)cc(OC)c(C)c2OC)c(OC)c1` [A6, (E)-3-(2,4,6-trimethoxy-3-methylphenyl)-1-(2,4,6-trimethoxyphenyl)prop-2-en-1-one], the IC50 in the test on A549 is 63.3 ± 1.41 µM; in the test on Hela, more than 100 µM; with HepG2, more than 100 µM; with MCF-7, more than 100 µM.

Take `COc1cc(OC)c(C(=O)/C=C/c2ccccc2)c(OC)c1` [A7, (E)-3-phenyl-1-(2,4,6-trimethoxyphenyl)prop-2-en-1-one]: the IC50 with A549 came to 59.4 ± 1.72 µM; in the test on Hela, 46.5 ± 1.33 µM; in the test on HepG2, 47.1 ± 1.42 µM; in the test with MCF-7, 57.8 ± 1.45 µM.

As for `COc1cc(OC)c(C(=O)/C=C/c2ccccn2)c(OC)c1` [B1, (E)-3-(pyridin-2-yl)-1-(2,4,6-trimethoxyphenyl)prop-2-en-1-one], the IC50 in the test with A549 was found to be 10.6 ± 0.38 µM; in the test with Hela, 11.9 ± 0.44 µM; in the test on HepG2 it was 10.8 ± 0.39 µM; in the test with MCF-7, 8.74 ± 0.63 µM.

For `COc1cc(OC)c(C(=O)/C=C/c2cccc(Br)n2)c(OC)c1` [B2, (E)-3-(6-bromopyridin-2-yl)-1-(2,4,6-trimethoxyphenyl)prop-2-en-1-one], the IC50 with A549 is 9.36 ± 0.72 µM; in the test with Hela, 6.48 ± 0.33 µM; in the test on HepG2 it was 7.12 ± 0.42 µM; with MCF-7, 7.83 ± 0.45 µM.

Consider `COc1cc(OC)c(C(=O)/C=C/c2ccc(Br)cc2)c(OC)c1` [B4, (E)-3-(4-bromophenyl)-1-(2,4,6-trimethoxyphenyl)prop-2-en-1-one], for which the IC50 with A549 is 19.8 ± 0.98 µM; with Hela it was 11.8 ± 0.86 µM; in the test on HepG2, 13 ± 0.74 µM; with MCF-7, 12.8 ± 0.64 µM.

On to `COc1cc(OC)c(C(=O)/C=C/c2ccsc2)c(OC)c1` [B5, (E)-3-(thiophen-3-yl)-1-(2,4,6-trimethoxyphenyl)prop-2-en-1-one], for which the IC50 with A549 was determined as 46.9 ± 1.15 µM; in the test with Hela, 37.2 ± 1.22 µM; in the test on HepG2 it was 19.9 ± 1.31 µM; in the test with MCF-7, 35.8 ± 1.35 µM.

Turning to `COc1cc(OC)c(C(=O)/C=C/C2=CSC(Br)=CC2)c(OC)c1` [B6, (E)-3-(6-bromo-4H-thiopyran-3-yl)-1-(2,4,6-trimethoxyphenyl)prop-2-en-1-one], the concentration for half-maximal inhibition (IC50) in the test on A549 was determined as 31.3 ± 0.63 µM; in the test on Hela, 18.9 ± 0.73 µM; with HepG2, 19.5 ± 0.59 µM; in the test with MCF-7, 26.3 ± 0.94 µM.

In the case of `COc1cc(OC)c(C(=O)/C=C/c2ccoc2)c(OC)c1` [B7, (E)-3-(furan-3-yl)-1-(2,4,6-trimethoxyphenyl)prop-2-en-1-one], the IC50 in the test on A549 is 47.4 ± 2.12 µM; in the test on Hela, 81.3 ± 2.44 µM; in the test on HepG2, 61.4 ± 1.34 µM; with MCF-7 it was 82.9 ± 2.65 µM.

As for `COc1cc(OC)c(C(=O)/C=C/c2coc(Br)c2)c(OC)c1` [B8, (E)-3-(5-bromofuran-3-yl)-1-(2,4,6-trimethoxyphenyl)prop-2-en-1-one], the IC50 in the test on A549 was more than 100 µM; in the test on Hela it was 49.8 ± 1.43 µM; with HepG2 it was 20.4 ± 1.52 µM; with MCF-7 it was 48.8 ± 1.45 µM.

Regarding `COc1cc(OC)c(C(=O)/C=C/c2cnc3ccccc3c2)c(OC)c1` [B10, (E)-3-(quinolin-3-yl)-1-(2,4,6-trimethoxyphenyl)prop-2-en-1-one], the IC50 in the test on A549 came out at 15.5 ± 0.74 µM; with Hela, 13.6 ± 0.83 µM; with HepG2, 8.92 ± 0.68 µM; in the test on MCF-7, 10.7 ± 0.62 µM.

For the compound `COc1cc(OC)c(C(=O)/C=C/c2cn(C)c3ccccc23)c(OC)c1` [B11, (E)-3-(1-methyl-1H-indol-3-yl)-1-(2,4,6-trimethoxyphenyl)prop-2-en-1-one], the IC50 in the test with A549, in the test on Hela, in the test with HepG2 and with MCF-7 was more than 100 µM in each case.

Source of the values: article PMC9845116 (Saudi Pharmaceutical Journal : SPJ, 2022).
